# Legend:
# citrated whole blood = test: TEG Kaolin test of blood spiked with anticoagulant; format: biochemical, human; conditions: for R value versus control reference range: reference range about 5 to about 10 minutes; for MA values versus control: all studied concentrations; for MRTG / TMRTG: Kaolin; for R, K, α, and MRTG parameters, statistical significance versus control: three concentrations per drug, Example 1
# Text: The TEG clotting assay was used to determine if low, normal, and high doses of dabigatran, rivaroxaban, and apixaban could be detected in blood spiked with these compounds. Three oral anticoagulants (OAC), namely dabigatran, rivaroxaban, and apixaban, were spiked into blood obtained from 14 healthy volunteer human donors. For each OAC tested, citrated blood from three donors was spiked with three different concentrations of the active drug (i.e., the compound). The spiked blood samples and control samples spiked with diluent were tested with the TEG® 5000 Thrombelastograph® Hemostasis Analyzer (Haemonetics Corporation, Braintree, Mass., USA) using the Kaolin and RapidTEG® reagents (Haemonetics). Each sample was run in triplicate. All samples were tested with and without ecarin (purchased from Enzyme Research Laboratories, South Bend, IN). This study was IRB approved and all donors were over 18 and signed informed consent forms.
# Dabigatran stock was prepared from the active dabigatran moiety (Alsachim, France) by dissolution in 0.1M HCl and further dilution in 1:1 DMSO:H20. […] Tubes of citrated blood were spiked with this dabigatran stock to create final concentrations of 500, 200, and 50 ng/mL of citrated whole blood.
# Rivaroxaban stock was prepared by agitation of a 20 mg Xarelto tablet (Jannsen, Titusville, N.J.) in a 1:1 DMSO: H20 solution, which was diluted to a final concentration of 20 ng/uL rivaroxaban in 1:1 DMSO:H20. Tubes of citrated blood were spiked with this rivaroxaban stock to create final concentrations of 500, 89, and 22 ng/mL in citrated whole blood. […] Apixaban stock was prepared in a similar manner from a 2.5 mg Eliquis tablet (Bristol-Myers Squibb, New York, N.Y.), with final concentrations of 1000, 500, and 250 ng/mL in whole blood. Apixaban is approved for prevention of VTE in elective hip or knee replacement surgery (2.5 mg BID) and for prevention of stroke and systemic embolism in patients with non-valvular AF (5 mg BID) (see Bristol-Myers SP, EEIG. apixaban summary of product characteristics). […] Control samples, prepared for each tested drug, included a solvent control containing only citrated blood and the diluent used to dilute the drug stock, and an unadulterated citrate blood tube.
# Testing was performed on TEG-5000 analyzers (Haemonetics Corp., Braintree, Mass., USA) using Kaolin vials, 0.2M CaCl2, RapidTEG (rTEG) vials, diluent water, and disposable clear cups and pins provided by the manufacturer (Haemonetics, Braintree, Mass.), and ecarin (Enzyme Research Laboratories, South Bend, Ind.). All testing was performed in triplicate at each dose, and allowed to continue until the MA (maximum amplitude) parameter defined. The various components of the TEG tracing are depicted in FIG. 3A. The Kaolin test generates an R parameter, which is measured in minutes, and is the time elapsed from the initiation of the test until the point where the onset of clotting provides enough resistance to produce a 2 mm amplitude reading on the TEG tracing. This parameter represents the initiation phase of coagulation related to the function of enzymatic clotting factors. The R parameter has a normal range of 5 to 10 min for kaolin. A prolonged R time indicates slower clot formation. K is a measurement of the time interval from the split point to the point where fibrin cross-linking provides enough clot resistance to produce a 20 mm amplitude reading. The α angle is the angle formed by the slope of a tangent line traced from the R to the K time and a central line measured in degrees. K time and the α angle denote the rate at which the clot strengthens, and is representative of thrombin's cleaving of the available fibrinogen into fibrin. The MA indicates the point at which clot strength reaches its maximum amplitude, measured in millimeters on the TEG tracing, and reflects the end result of maximal platelet-fibrin interaction via the GPIIb-IIIa receptors (see Khurana S et al., J Lab Clin Med. 130:401-411, 1997). […]
# porcine plasma = test: TEG 6S DTI channel R-time, porcine experimental trauma model; format: in vivo; conditions: pre and post trauma; baseline 3.4±0.6 min
# Method: The TEG®6S system (Haemonetics Corp., Braintree, Mass.) is based on viscoelasticity measurements using resonance frequency and disposable multi-channel microfluidic cartridges. Blood and plasma from healthy volunteers were spiked with dabigatran in the therapeutic range (in increasing concentrations) and tested with an OAC cartridge with an ecarin based, direct thrombin inhibitor (DTI) channel. This channel was also evaluated with porcine plasma from an experimental trauma model (n=6) where dabigatran levels were measured with dilute TT (Hemoclot®). TEG 6s R-time (reaction time) was correlated to the drug levels.
# [1] = test system: blood from a single human volunteer; test: Detection time (R time with Factor Xa) in volunteer blood before and after oral anticoagulant; format: in vivo; conditions: 2 hours 30 minutes after 20 mg oral
# Method: (§1) Blood from a single human volunteer was analyzed using thromboelastography with Factor Xa and ecarin before and after the volunteer was orally administered an anticoagulant.
# (§2) For these studies, the normal ranges for the particular reagent (i.e., Factor Xa or ecarin) were determined using multiple donors known not to be taking any anticoagulant.
# (§3) The human volunteer was known not to be taking (i.e., was not being administered) an anticoagulant. In this example, blood was taken from the volunteer before the volunteer was administered any anticoagulant. This is the “before” blood component sample. The volunteer was orally administered 20 mg rivaroxaban, an anti-Factor Xa anticoagulant. Two hours and thirty minutes after oral administration of the rivaroxaban, blood was drawn again from the volunteer. This is the “after” blood component sample.
# (§4) The “before” and “after” samples were analyzed using thromboelastography in the presence of Factor Xa or in the presence of ecarin. When the R time is determined in the presence of Factor Xa, that time is called the detection time. When the R time is determined in the presence of ecarin, that time is called the classification time.
# [2] = test system: blood from a single human volunteer; test: Classification time (R time with ecarin) in volunteer blood before and after oral anticoagulant; format: in vivo; conditions: 2 hours 30 minutes after 20 mg oral
# Method: as §1, §2, §3, §4
# [3] = blood spiked with 50 ng/ml dabigatran
# [4] = blood spiked with 200 ng/ml dabigatran
# [5] = blood spiked with 500 ng/ml dabigatran
molecule,measurement,setting,value
dabigatran,R value versus control reference range,citrated whole blood; 50 ng/ml (lowest dosage),"outside of the normal (i.e., control) reference range"
same,"R value, dose dependence","citrated whole blood; 50, 200, 500 ng/ml",increases the R value of the tested blood components in a dose dependent manner
same,"R, α, and TMRTG parameters between concentrations","citrated whole blood; 500, 200, 50 ng/mL",significantly different between all concentrations
same,R time versus non-spiked blood sample,citrated whole blood; all doses,significantly higher
same,MA values versus control,citrated whole blood,did not change
same,MRTG,citrated whole blood; [3],13 mm/min
same,TMRTG,citrated whole blood; [3],13 min
same,MRTG,citrated whole blood; [4],12 mm/min
same,TMRTG,citrated whole blood; [4],18 min
same,MRTG,citrated whole blood; [5],7 mm/min
same,TMRTG,citrated whole blood; [5],22 min
same,"R, K, α, and MRTG parameters, statistical significance versus control",citrated whole blood,able to detect the presence of all tested concentrations
same,R-time following administration,porcine plasma,≥ 21 ± 5.9 min
"O=C(NC[C@H]1CN(c2ccc(N3CCOCC3=O)cc2)C(=O)O1)c1ccc(Cl)s1 [rivaroxaban, Rivaroxaban]",R value versus control reference range,citrated whole blood; 500 ng/ml (highest dosage),"outside of the normal (i.e., control) reference range"
same,MA values versus control,citrated whole blood,did not change
same,R time versus non-spiked blood sample,citrated whole blood; highest concentration tested,significantly higher
same,R value versus control reference range,citrated whole blood; lower two doses (22 and 89 ng/ml),within the control reference range
same,"R, K, α, and MRTG parameters, statistical significance versus control",citrated whole blood,only achieved statistical significance for the higher concentrations
same,"""after"" detection time (R time, FXa reagent)",[1],approximately 4.4 minutes
same,"""after"" detection time relative to the reference range R time of 1.5 minutes",[1],2.93 times
same,"R of ""after"" blood versus Ecarin reference range (approximately 4.1 minutes upper boundary)",[2],within the Ecarin reference range

# From patent US10954549B2, “Detection and classification of an anticoagulant using a clotting assay” (Haemonetics Corporation, priority 2014, dated 2021)
